pIC50: −log10 of the molar value.
Key:
[1] = Inhibition of KDR (unknown origin) expressed in […] cells assessed as reduction in cell viability incubated for 48 hrs by celltiter glo luminescence cell viability assay
[2] = Inhibition of RET (unknown origin) expressed in […] cells assessed as reduction in cell viability incubated for 48 hrs by celltiter glo luminescence cell viability assay

With `CN(C)CCCNc1ccn2ncc(-c3ccc4c(c3)OCO4)c2n1` the pIC50 [1] was 5.05 and the pIC50 [2] was 5.40.

From BindingDB's records for doi:10.1021/acsmedchemlett.9b00615 (University of Manchester, 2020)
